Tests used:
[1] = system: staphylococcus aureus (SA); assay: Disk diffusion assay (antibacterial zone); format: cell-based; conditions: for antibacterial behavior: commercially pure lithium compounds, dry- or wet-molded 3 mm high, 6 mm dia. cylinders; for anti-bacterial zones: wet-molded pure Li compound (0.6 M (NH4)2HPO4 setting solution, 1.4 MPa), 6 mm dia. cylinder
Description: (§1) To prepare a TSB medium, 6 g Tryptone (Neogen, USA), 2 g Soytone (Soytone BD, USA) and 2 g NaCl (J.T. Baker, USA) were placed into a beaker filled with 400 ml of double distilled water and mixed with a stir bar. After total dissolution, the pH of the solution was adjusted to 7.3 and the solution was autoclaved (121° C., 1.2 kg/cm^2) for 30 min.
as §1, with “TSA” for “TSB”, “USA),” for “USA) and”, “Baker, USA) and 6 g Agar (Neogen,” for “Baker,”, “min. After being sterilized, the TSA medium was poured into a petri dish and allowed hardened. The TSA medium was then placed into an incubator at 30° C.” for “min.”
1 ml staphylococcus aureus (SA) containing TSB medium was transferred into a 15 ml centrifuge tube, wherein 10 ml phosphate buffered saline (PBS) was added and mixed gently. The mixture was centrifuged (KUBOTA 5922, Japan) at 3000 rpm for 10 minutes. The supernatant was removed and a SA pellet remained. 1 ml PBS was then added to suspend the pellet. 20 μl of the SA suspension and 180 μl PBS were transferred into each well of a 96 well plate. The absorbance was assayed using an ELISA reader (Sunrise, Tecan, Switzerland) at 600 nm to determine the bacterial concentration (cfu/ml) (200 μl of PBS was used as a negative control). Once determined, an appropriate volume of SA containing medium was transferred into a 1 micro centrifuge tube, wherein TSB was added to adjust bacterial concentration to 3.5×10^6 (cfu/ml). The tube was shaked for 15 seconds to allow thorough mixing. 100 μl of the SA containing medium was removed and dropped evenly across the agar plate. Once the broth was distributed evenly on agar plate and became almost dry, samples to be tested were placed on top of the agar and the petri dish was covered with a parafilm. The dish was placed in an incubator (LM-570R, Yih Der, Taiwan) at 37° C. for 24 hours. Bacteria colony formation was then observed and colony diameters measured.
After being loaded, the samples were placed on a table for 1 hour to become dry. Four samples were then placed into a 20 ml glass vial, wherein 8 ml Hanks' solution was added with a solid/liquid ratio of 0.1 g/ml. The glass vial was put into a water bath at 37° C. for 1, 2, 3, 5, and 7 days. The Hanks' solution was changed daily. Once having been soaked for desired periods of time, the samples were placed into a 50° C. oven for 24 hours, then stored in a zip lock bag.

[2] = system: S. aureus; assay: Antimicrobial activity measurement (CFU count in TSB); format: cell-based
Description: Appropriate amount of UV-sterilized sample (either granule or cement) to be tested was put in a 12-well plate, wherein was added 1 ml Tryptone Soya Broth (TSB) with 10^6 live S. aureusbacteria in each well (concentration: 10^6 colony-forming units (CFU) per ml). S. aureusbacteria were cultured with the sample anaerobically at 37° C. One cultured without sample was considered as a positive control in each study group. The viability of the bacterial suspensions incubated with different samples was assessed using Tryptone Soya Agar (TSA) solid agar plates. After cultivation for 24 h, broth of each well was sequentially diluted and plated. The growth of bacteria was evaluated after cultivation on agar plates at 37° C. for 24 h. Then colony-forming units (CFU) were counted to calculate concentration using the equation,
[formula] and the antimicrobial activity is obtained by the following equation: Antimicrobial activity={[(Conc. of control group)−(conc. of experiment)]/(Conc. of control group)}×100%
Appropriate amounts of UV-sterilized Li3PO4 or Li2CO3 salt were each mixed with 1 ml TSB and tested for their antimicrobial activity values using the aforementioned method.
Appropriate amounts of “65/35” powder were mixed with appropriate amounts of Li3PO4 or Li2CO3 salt to form TTCP/DCPA/CSH/Li salt mixed powder with different Li salt ratios. The mixed powder was mixed with 0.6 M (NH4)2HPO4 solution to form a cement paste. Prior to being fully hardened, the paste was placed in a stainless steel mold under a pressure of 450 Kgf to squeeze a portion of the liquid out of the paste. After being hardened and removed from the mold, the hardened block was crushed and sieved into granules with a particle size range of about 0.4-1.2 mm. 0.2 g UV-sterilized thus-obtained granular sample was mixed with 1 ml TSB and tested for its antimicrobial activity using the aforementioned method.

Compound | antibacterial behavior [1] | anti-bacterial zones [1] | Antimicrobial activity (24 h) ([2]; Li salt amount/TSB 0.06 g/ml) | Antimicrobial activity (24 h) ([2]; Li salt amount/TSB 0.08 g/ml) | Antimicrobial activity (24 h) ([2]; Li salt amount/TSB 0.10 g/ml) | Antimicrobial activity (24 h) ([2]; Li salt amount/TSB 0.12 g/ml) | Antimicrobial activity (24 h) ([2]; Li salt amount/TSB 0.14 g/ml) | 24 h antimicrobial activity value ([2]; all Li2CO3 salt samples (0.06-0.14 g/ml TSB)) | 24 h antimicrobial activity values ([2]; 0.06-0.12 g Li3PO4 salt in 1 ml TSB)
O=S(=O)([O-])[O-].[Li+].[Li+] [Li2SO4, Lithium sulfate] | high antibacterial behavior | 22 mm |  |  |  |  |  |  | 
O=C([O-])[O-].[Li+].[Li+] [Li2CO3, Lithium carbonate] | high antibacterial behavior | 18 mm | 100% | 100% | 100% | 100% | 100% | 100% | 
[Li+].[Li+].[O-2] [Li2O, Lithium oxide] | high antibacterial behavior |  |  |  |  |  |  |  | 
O=P([O-])([O-])[O-].[Li+].[Li+].[Li+] [Li3PO4, Lithium phosphate] | high antibacterial behavior |  | 98.9% | 98.9% | 97.4% | 98.8% | 99.8% |  | 97.4-98.9%
[F-].[Li+] [LiF, Lithium fluoride] | high antibacterial behavior |  |  |  |  |  |  |  | 
